The results in this text go back to patent US20160257931A1, “METHOD FOR CULTURE OF CORNEAL ENDOTHELIAL CELLS, PROCESS FOR PRODUCTION OF CORNEAL ENDOTHELIAL CELL SHEET FOR TRANSPLANTATION PURPOSES, AND CULTURE KIT FOR CORNEAL ENDOTHELIAL CELLS” (CORNEA REGENERATION INSTITUTE CO., LTD., priority 2010, published 2016).

Common to all, as to type: cell-based
The subject of test [1] is human corneal endothelial cell. Nature of the test: Subculture of corneal endothelial cells (passage stability). On the procedure:
The primary cultured cells (10 donors, 14- to 69-year-old) obtained in the above-mentioned 1 were each subcultured as follows.
The primary cultured cells were washed with PBS and dispersed in 0.5% trypsin/0.2% EDTA. The basal medium was added thereto, the mixture was centrifuged (500 g, 5 min), and suspended in the basal medium containing 100 μg/ml ascorbyl 2-phosphate and comparison basal medium without containing the same. The cells were seeded at 1000 cells/cm^2 on a dish coated with atelocollagen, which was prepared in the same manner as in the above-mentioned 1, and cultured at 37° C., 5% CO2. When the cells reached confluence, a similar passage operation was repeated.

In test [2] the test system is human corneal endothelial cell. Nature of the test: Comparison with the conventional culture method on bovine corneal endothelial cell-producing extracellular substrate. The note with it: FIG. 3. From the text:
According to a conventionally-known method (Miyata K, Drake J, Osakabe Y, Hosokawa Y, Hwang D, Soya K, Oshika T, Amano S. Cornea. 2001 20:59-63), a human corneal endothelial cell was isolated and cultured. The method is briefly described in the following. The cornea was transferred into a 35 mm petri dish, and the endothelial face was washed with the basal medium. Using ultrafine forceps, the corneal endothelium was peeled off in a sheet with Descemet's membrane from the corneal inner periphery to the center, and transferred into a 35 mm petri dish. The Descemet's membrane was further cut into small slice pieces of about 2 mm square on the petri dish, and placed with the endothelial surface facing downward on a dish coated with an extracellular substrate produced by corneal endothelial cells of a fetal calf. The dish was carefully moved into an incubator at 37° C., 5% CO2, and cultured for 2-3 weeks while exchanging the medium every 2-3 days.
In any passage, more cells were obtained in the ascorbyl 2-phosphate addition group, and the total cell number reached after completion of the three passage operations was higher when cultured in the basal medium containing ascorbyl 2-phosphate.

Test [3] relates to human corneal endothelial cell. Nature of the test: Primary culture of corneal endothelial cells in the presence of ascorbyl 2-phosphate. The note with it: for Number of obtained cells in primary culture: Asc-2P(+) 100 μg/ml in basal medium, atelocollagen-coated dish. On the procedure:
Sclerocorneal segments prepared from 10 examples obtained from human eyes (from 14 to 69 years old) from Rocky Mountain Lions Eye Bank in a low temperature preservation state in a preservation solution (trade name: Optisol manufactured by Chiron corporation). The segments were 6 to 8 days old after death.
The sclerocorneal segments were transferred into a 35 mm petri dish, and the endothelial face was washed with DME medium containing 15% fetal calf serum (FCS) and 2 ng/ml basic fibroblast growth factor (bFGF) (hereinafter to be indicated as the basal medium).
Using ultrafine forceps, the corneal endothelium was peeled off in a sheet with the Descemet's membrane from the corneal inner periphery to the center and transferred into a 35 mm petri dish. The Descemet's membrane segment to which the corneal endothelial cells were attached was further cut into small pieces of about 2 mm square on the petri dish, and only the Descemet's slice pieces without attachment of a parenchymal tissue in a cottony form were recovered in a low adsorption centrifugation tube (manufactured by SUMITOMO BAKELITE Co., Ltd.), and incubated in the basal medium containing 0.2% collagenase (trade name: collagenase A, collagenase activity: >0.15 U/mg, manufactured by Roche K.K.) at 37° C., 5% CO2 for 1-3 hr.
The collagenase-treated cells were diluted with the basal medium, centrifugal washing (20 g, 2 min) was repeated three times, and the cells floating in the supernatant were removed. The cells were diluted with phosphate buffered saline (PBS), and centrifugal washing (20 g, 2 min) was performed once in the same manner. 0.5% Trypsin/0.2% ethylenediamine tetraacetic acid (EDTA) was added to the precipitated cell mass, and the mixture was incubated at 37° C., 5% CO2 for 5 min. The basal medium was added and the mixture was centrifuged (500 g, 5 min) to give cell pellets. The obtained cell pellets were resuspended in the basal medium containing 100 μg/ml ascorbyl 2-phosphate (manufactured by Wako Pure Chemical Industries, Ltd.) and the comparison basal medium without containing the same. The cells were each seeded on a dish prepared by the following method, and cultured in an incubator at 37° C., 5% CO2 for 2-4 weeks while exchanging the medium every 2-3 days.
5 mg/ml Atelocollagen (bovine dermis-derived acidic collagen solution, trade name: IAC-50, manufactured by KOKEN CO., LTD) was diluted 100-fold with 10 mM acetic acid, 1 ml thereof was added to a 35 mm dish, left standing at 37° C. for 1 hr, and washed twice with PBS (2 ml) to prepare a dish coated with atelocollagen.

As for `O=C1O[C@H]([C@@H](O)CO)C(O)=C1OP(=O)(O)O` [Asc-2P, ascorbyl 2-phosphate], in test [1] (all 10 cases, 100 μg/ml, seeded at 1000 cells/cm^2, repeated subculture), the “Number of cells obtained on completion of the subculture, versus no addition” value is “higher”. Also, the “Number of cells obtained on repeated subculture, addition group versus non-addition group” value in test [1] (donor No. 8, FIG. 2 (a), (b)) is listed as “higher”. Moreover, the “Cell form on completion of 6 passages” value in test [1] (donor No. 8, FIG. 2 (c)) was “maintained a flagstone-like form”. Also, in test [2], the “Proliferation efficiency versus conventional method” value is on record as “higher proliferation efficiency”. For the same compound, in test [2] (atelocollagen plus ascorbyl 2-phosphate versus bovine corneal endothelial cell-producing extracellular substrate), the “Total cell number reached after completion of the three passage operations, versus conventional method” value is reported as “higher”. For the same compound, the “Number of obtained cells in primary culture” value in test [3] (donor No. 1, 27 days of culture) is 59 ×10e4 cells; in test [3] (donor No. 2, 21 days of culture) it was 32 ×10e4 cells; in test [3] (donor No. 3, 21 days of culture) it was 35 ×10e4 cells; in test [3] (donor No. 4, 22 days of culture), 39 ×10e4 cells; in test [3] (donor No. 5, 26 days of culture), 66 ×10e4 cells; in test [3] (donor No. 6, 22 days of culture) it was 27 ×10e4 cells. For the same compound, the “Number of obtained cells in primary culture” value in test [3] (donor No. 7, 26 days of culture) came out at 60 ×10e4 cells; in test [3] (donor No. 8, 23 days of culture), 308 ×10e4 cells; in test [3] (donor No. 9, 24 days of culture), 405 ×10e4 cells; in test [3] (donor No. 10, 29 days of culture), 20 ×10e4 cells. In test [3] (all 10 donors (14 to 69 years old), 100 μg/ml), the “Number of corneal endothelial cells on completion of the primary culture, versus no addition” value is “strikingly increased”. Also, in test [3] (donor Nos. 5 and 7, basal medium containing ascorbyl 2-phosphate), the “Cell form in primary culture” value was “flagstone-like cell images on the entire face of the culture dish”.
